Reference: patent US12133855B2, “Lipid-like nanocomplexes and uses thereof” (Trustees of Tufts College, priority 2018, dated 2024)

Experiments:
GFP-HEK cells = experiment: Cas9 mRNA and sgRNA delivery, GFP knockout (GFP− cells); assay type: cell-based; conditions: Cas9 mRNA and sgRNA 1/1; lipidoid/mRNA=10/1; [mRNA]=0.86 μg mL^−1; 48 h
Method: (§1) Next, the possibility of using OCholB LNPs to deliver mRNA for genome editing (Cre-loxP and CRISPR/Cas9 systems) purposes was examined. First, Cre mRNA was complexed with OCholB LNPs and tested against HeLa-DsRed cells. The HeLa-DsRed cells express red fluorescent protein, DsRed, only upon Cre protein-mediated recombination. After 24 h of incubation with mRNA/LNPs (lipidoid/mRNA=10/1; [mRNA]=0.86 μg mL^−1), the DsRed^+ cell portions were determined by flow cytometry. […] Then the Cas9 mRNA that expresses a version of Streptococcus pyogenes SF370 Cas9 protein with an N and C terminal nuclear localization signal (NLS) were loaded into LNPs, along with single-guide RNA (sgRNA) that targets a sequence on GFP gene. GFP-HEK cells which steadily express GFP proteins were used a cell model in this case. GFP-cells, indicating a successful Cas9-mediated knockdown of GFP expression, were analyzed using flow cytometry. […] This was also found to be applicable to protein delivery in our previous studies.
(§2) In this context, two strategies were tested, i.e., synthesizing new OCholB-tailed lipidoids with single tail rather than full substitution, and adding helper lipids (phospholipids) into fully substituted OCholB LNPs. Single-tailed lipidoids, 75-OCholB-1, 76-OCholB-1 and […] at first following similar protocols as described before and characterized by ESI-MS ([75-OCholB-1+H]^+, 736.55; [76-OCholB-1+H]^+, 734.64; [77-OCholB-1+H]^+, 748.73). Nanoparticles were than fabricated using the same sonication/vortex procedures and the obtained LNPs were measured by DLS (75-OCholB-1, <Dh>=302.6 nm, μ2/I^2=0.30; 76-OCholB-1, <Dh>=294.5 nm, μ2/I^2=0.30; 77-OCholB-1, <Dh>=254.2 nm, μ2/I^2=0.33). […] 69.4%, 72.5% and 68.9% of GFP^+ cells were determined for mRNA/75-OCholB-1, mRNA/76-OCholB-1 and mRNA/77-OCholB-1 treated HeLa cells, respectively. Cre mRNA could also be efficiently delivered into HeLa-DsRed cells, as 87.3% (mRNA/75-OCholB-1), 82.8% (mRNA/76-OCholB-1) and 81.5% (mRNA/77-OCholB-1) of cells were determined to be DsRed^+ after 24 h of exposure (FIG. 14G). […]

[1] = Storage stability of LNPs (time-dependent DLS, DiO/DiI FRET); assay type: physicochemical; conditions: DiO and DiI encapsulated LNPs, 7 days of storage
Method: The morphologies of LNPs were further studied by the transmission electron microscopy (TEM). […] Subsequently, the stability of LNPs thus prepared was examined by DLS and fluorescence measurements.
The cell (HeLa and HeLa-DsRed cell lines) internalization studies were conducted using small molecular hydrophobic (nile red) and hydrophilic (calcein) fluorescent dyes and macromolecular fluorescent recombinant protein ((−30)GFP-Cre) loaded OCholB LNPs. The stabilities of cargo-loaded LNPs were examined at first using time-dependent DLS and fluorescence measurements.

[2] = In vivo toxicity of blank OCholB LNPs (body weight, serum biochemistry); set-up: species or system Balb/c mice; conditions: blank LNPs 50 μg per injection, tail vein; for serum concentrations of creatinine, urea, AST and ALT: day 1 and 5, blood at day 14; for body weight vs untreated control group: day 1 and day 5, 14 days
Method: For in vivo toxicity studies, the body weights of untreated and nanoparticles injected Balb/c mice (housed in a temperature and humidity controlled facility with a 12 h light/dark cycle) were measured at day 1, 3, 5, 7, 9, 11, 13 and 14. Biological functions of kidney and liver were examined by the serum biochemical tests and concentrations of creatinine, urea, aspartate aminotransferase (AST), and alanine aminotransferase (ALT) were measured using corresponding detection kits (MilliporeSigma) following manufacturers' protocols.
The in vivo toxicity of the OCholB LNPs was further examined by measuring body weight change and biological functions of kidney and liver through serum biochemical tests using Balb/c mice. 4-6 weeks old Balb/c mice (n=3) were injected with blank 75-OCholB, 76-OCholB and 77-OCholB LNPs (50 μg LNPs for each injection) through tail vein at day 1 and day 5, body weights were monitored for 14 days, and blood were collected and analyzed at day 14.

[3] = Thiol-triggered size variation of OCholB LNPs (DTT, cysteine; DLS); assay type: physicochemical; conditions: for decrease in size: 20 μM L-cysteine, 6 h of incubation; for increase in averaged hydrodynamic diameter: 24 h; for increase of relative size: first 2 h
From the text: The thiol-trigged degradation and dissociation of the OCholB LNPs were studied by time-dependent DLS measurements and TEM observation. […] The disruption of the vesicle structure is considered to be resulted from the thiol-exchange and disulfide bond cleavage reactions of OCholB lipidoids. We next investigated whether the thiol-containing molecules (e.g. albumin, cysteine, homocysteine, cysteinylglycine, etc.) in the serum may induce the structural disintegration of these disulfide bond-containing LNPs. The stabilities of LNPs in the presence of 20 μM of L-cysteine (Cys), which mimics the free thiols on the small- and macromolecules presented in the serum, were examined. […] While the degrees of size changes vary between lipidoids with different amine head groups, all lipidoids were more responsive to DTT (modeling intracellular conditions) than to Cysteine (modeling conditions in the blood serum).

HeLa-DsRed cells = experiment: Cre mRNA delivery (DsRed+ cells); assay type: cell-based; conditions: lipidoid/mRNA=10/1, [mRNA]=0.86 μg mL^−1, 24 h
Method: as §1, §2

HeLa cells = experiment: MTT cytotoxicity of mRNA-loaded nanoparticles; assay type: cell-based; conditions: for cell morphology (bright field images): 24 h of exposure; for cell viability: GFP mRNA loaded, lipidoid/mRNA=10/1, [mRNA]=0.86 μg mL^−1, 24 h
Method: All experiments were performed in quadruplicate.
Next, the MTT assay was conducted to examine the cytotoxicity of mRNA-loaded nanoparticles against HeLa cells.

| SMILES | GFP^− cells (GFP-HEK cells) [%] | FRET ratio (I575/I575+I505) variations [1] | serum concentrations of creatinine, urea, AST and ALT [2] | body weight vs untreated control group [2] | decrease in size [3] [%] | increase in size ([3]; 10 mM DTT, 6 h) [%] | increase in averaged hydrodynamic diameter ([3]; 10 mM DTT) [%] | increase of relative size ([3]; 10 mM DTT) [%] | DsRed^+ cells (HeLa-DsRed cells) [%] | cell morphology (bright field images) (HeLa cells) | cell viability (HeLa cells) [%] |
| --- | --- | --- | --- | --- | --- | --- | --- | --- | --- | --- | --- |
| CCN(CC)CCN(CCC(=O)OCCSSCCNC(=O)OC1CCC2(C)C(=CCC3C2CCC2(C)C(C(C)CCCC(C)C)CCC32)C1)CCC(=O)OCCSSCCNC(=O)OC1CCC2(C)C(=CCC3C2CCC2(C)C(C(C)CCCC(C)C)CCC32)C1 (stereo not shown) [Lipidoid 75-OCholB] | 6.1 | negligible variations | very similar to control mice | negligible differences | 12.2 | 1315.7 | 2872.4 | 566.4 | 67.2 | no obvious variations | 84.7 |
| CC(C)CCCC(C)C1CCC2C3CC=C4CC(OC(=O)NCCSSCCOC(=O)CCN(CCC(=O)OCCSSCCNC(=O)OC5CCC6(C)C(=CCC7C6CCC6(C)C(C(C)CCCC(C)C)CCC76)C5)CCN5CCCC5)CCC4(C)C3CCC12C (stereo not shown) [Lipidoid 76-OCholB] | 7.7 | negligible variations | very similar to control mice | negligible differences | 14.6 |  |  | 498.5 | 48.7 | no obvious variations | 94.5 |
| CC(C)CCCC(C)C1CCC2C3CC=C4CC(OC(=O)NCCSSCCOC(=O)CCN(CCC(=O)OCCSSCCNC(=O)OC5CCC6(C)C(=CCC7C6CCC6(C)C(C(C)CCCC(C)C)CCC76)C5)CCC5CCCN5C)CCC4(C)C3CCC12C (stereo not shown) [Lipidoid 77-OCholB] | 4.4 | negligible variations | very similar to control mice | negligible differences | 7.2 |  |  | 1591.4 | 72.8 | no obvious variations | 100.1 |
| CC(C)CCCC(C)C1CCC2C3CC=C4CC(OC(=O)NCCSSCCOC(=O)CCN(CCC(=O)OCCSSCCNC(=O)OC5CCC6(C)C(=CCC7C6CCC6(C)C(C(C)CCCC(C)C)CCC76)C5)CCN(C)C)CCC4(C)C3CCC12C (stereo not shown) [Lipidoid 78-OCholB] |  |  |  |  |  |  | 4642.8 |  |  |  |  |
| CC(C)CCCC(C)C1CCC2C3CC=C4CC(OC(=O)NCCSSCCOC(=O)CCN(C)CCN(CCN(C)CCC(=O)OCCSSCCNC(=O)OC5CCC6(C)C(=CCC7C6CCC6(C)C(C(C)CCCC(C)C)CCC76)C5)CCN(C)CCC(=O)OCCSSCCNC(=O)OC5CCC6(C)C(=CCC7C6CCC6(C)C(C(C)CCCC(C)C)CCC76)C5)CCC4(C)C3CCC12C (stereo not shown) [Lipidoid 304-OCholB] |  |  |  |  |  |  | 3849.6 |  |  |  |  |
